pIC50: −log10 of the molar value. Like-named read-outs stand apart in the source and are kept apart here.
How the values were obtained:
[1] = test system: HeLa cervical adenocarcinoma cells; assay: bipolar spindle formation in HeLa cells; assay type: cell-based, human
Description: Biochemical- and cell-based assays were used to evaluate the inhibitory activities of the STLC analogs. Using a commercially available assay from Cytoskeleton, Inc, analogs were assayed for their ability to block the microtubule-activated ATPase activity of recombinant human EG5 motor domain. In parallel, HeLa cells were treated for four hours with a range of concentrations, and then fixed, stained for microtubules, and mitotic cells were scored for spindle bipolarity.

NCI60 tumor panel = NCI60 tumor panel growth inhibition, whole panel; assay type: cell-based
CCRF-CEM = assay: NCI60 growth inhibition, Leukemia CCRF-CEM; assay type: cell-based; details: Homo sapiens
Description: (§1) MSTCO was screened against the NCI60 tumor panel. Cell lines shown above represent lines common to all three screens, and growth inhibition is expressed as the concentration of drug (μM) that achieved 50% growth inhibition.

HL-60(TB) = assay: cells; assay type: cell-based; details: Homo sapiens; Leukemia HL-60(TB)
K-562 = assay: NCI60 growth inhibition, Leukemia K-562; assay type: cell-based; details: Homo sapiens, K562
Description: as §1

MOLT-4 = assay: NCI60 growth inhibition, Leukemia MOLT-4; assay type: cell-based; details: Homo sapiens
Description: as §1

RPMI-8226 = assay: NCI60 growth inhibition, Leukemia RPMI-8226; assay type: cell-based; details: Homo sapiens
Description: as §1

SR = assay: NCI60 growth inhibition, Leukemia SR; assay type: cell-based; details: Homo sapiens
Description: as §1

A549/ATCC = assay: NCI60 growth inhibition, Non-Small Cell Lung A549/ATCC; assay type: cell-based; details: Homo sapiens
Description: as §1

EKVX = assay: NCI60 growth inhibition, Non-Small Cell Lung EKVX; assay type: cell-based; details: Homo sapiens
Description: as §1

HOP-62 = assay: NCI60 growth inhibition, Non-Small Cell Lung HOP-62; assay type: cell-based; details: Homo sapiens
Description: as §1

NCI-H226 = assay: NCI60 growth inhibition, Non-Small Cell Lung NCI-H226; assay type: cell-based; details: Homo sapiens
Description: as §1

NCI-H23 = assay: NCI60 growth inhibition, Non-Small Cell Lung NCI-H23; assay type: cell-based; details: Homo sapiens
Description: as §1

NCI-H322M = assay: NCI60 growth inhibition, Non-Small Cell Lung NCI-H322M; assay type: cell-based; details: Homo sapiens
Description: as §1

NCI-H522 = assay: NCI60 growth inhibition, Non-Small Cell Lung NCI-H522; assay type: cell-based; details: Homo sapiens
Description: as §1

COLO 205 = assay: NCI60 growth inhibition, Colon COLO 205; assay type: cell-based; details: Homo sapiens
Description: as §1

HCC-2998 = assay: NCI60 growth inhibition, Colon HCC-2998; assay type: cell-based; details: Homo sapiens
Description: as §1

HCT-116 = assay: NCI60 growth inhibition, Colon HCT-116; assay type: cell-based; details: Homo sapiens
Description: as §1

HCT-15 = assay: NCI60 growth inhibition, Colon HCT-15; assay type: cell-based; details: Homo sapiens
Description: as §1

HT29 = assay: NCI60 growth inhibition, Colon HT29; assay type: cell-based; details: Homo sapiens, HT-29
Description: as §1

KM12 = assay: NCI60 growth inhibition, Colon KM12; assay type: cell-based; details: Homo sapiens
Description: as §1

SW-620 = assay: NCI60 growth inhibition, Colon SW-620; assay type: cell-based; details: Homo sapiens
Description: as §1

SF-268 = assay: NCI60 growth inhibition, Central Nervous System SF-268; assay type: cell-based; details: Homo sapiens
Description: as §1

SF-295 = assay: NCI60 growth inhibition, Central Nervous System SF-295; assay type: cell-based; details: Homo sapiens
Description: as §1

SF-539 = assay: NCI60 growth inhibition, Central Nervous System SF-539; assay type: cell-based; details: Homo sapiens
Description: as §1

SNB-19 = assay: NCI60 growth inhibition, Central Nervous System SNB-19; assay type: cell-based; details: Homo sapiens
Description: as §1

SNB-75 = assay: NCI60 growth inhibition, Central Nervous System SNB-75; assay type: cell-based; details: Homo sapiens
Description: as §1

U251 = assay: NCI60 growth inhibition, Central Nervous System U251; assay type: cell-based; details: Homo sapiens, U-251
Description: as §1

LOX IMVI = assay: NCI60 growth inhibition, Melanoma LOX IMVI; assay type: cell-based; details: Homo sapiens
Description: as §1

MALME-3M = assay: NCI60 growth inhibition, Melanoma MALME-3M; assay type: cell-based; details: Homo sapiens
Description: as §1

M14 = assay: NCI60 growth inhibition, Melanoma M14; assay type: cell-based
Description: as §1

SK-MEL-2 = assay: NCI60 growth inhibition, Melanoma SK-MEL-2; assay type: cell-based; details: Homo sapiens
Description: as §1

SK-MEL-28 = assay: NCI60 growth inhibition, Melanoma SK-MEL-28; assay type: cell-based; details: Homo sapiens
Description: as §1

SK-MEL-5 = assay: NCI60 growth inhibition, Melanoma SK-MEL-5; assay type: cell-based; details: Homo sapiens
Description: as §1

UACC-257 = assay: NCI60 growth inhibition, Melanoma UACC-257; assay type: cell-based; details: Homo sapiens
Description: as §1

UACC-62 = assay: NCI60 growth inhibition, Melanoma UACC-62; assay type: cell-based; details: Homo sapiens
Description: as §1

IGROV1 = assay: NCI60 growth inhibition, Ovarian IGROV1; assay type: cell-based; details: Homo sapiens, IGROV-1
Description: as §1

OVCAR-3 = assay: NCI60 growth inhibition, Ovarian OVCAR-3; assay type: cell-based; details: Homo sapiens
Description: as §1

OVCAR-4 = assay: NCI60 growth inhibition, Ovarian OVCAR-4; assay type: cell-based; details: Homo sapiens
Description: as §1

OVCAR-5 = assay: NCI60 growth inhibition, Ovarian OVCAR-5; assay type: cell-based; details: Homo sapiens
Description: as §1

OVCAR-8 = assay: NCI60 growth inhibition, Ovarian OVCAR-8; assay type: cell-based; details: Homo sapiens
Description: as §1

SK-OV-3 = assay: NCI60 growth inhibition, Ovarian SK-OV-3; assay type: cell-based; details: Homo sapiens
Description: as §1

786-0 = assay: NCI60 growth inhibition, Renal 786-0; assay type: cell-based; details: Homo sapiens
Description: as §1

ACHN = assay: NCI60 growth inhibition, Renal ACHN; assay type: cell-based; details: Homo sapiens
Description: as §1

CAKI-1 = assay: NCI60 growth inhibition, Renal CAKI-1; assay type: cell-based; details: Homo sapiens
Description: as §1

SN12C = assay: NCI60 growth inhibition, Renal SN12C; assay type: cell-based; details: Homo sapiens
Description: as §1

TK-10 = assay: NCI60 growth inhibition, Renal TK-10; assay type: cell-based; details: Homo sapiens
Description: as §1

UO-31 = assay: NCI60 growth inhibition, Renal UO-31; assay type: cell-based; details: Homo sapiens
Description: as §1

For `COc1ccc(C(SC[C@H](N)CO)(c2ccccc2)c2ccccc2)cc1` [Compound 1.0, 2-amino-3-[(4-methoxy-phenyl)-diphenyl-methylsulfanyl]-propan-1-ol], the “inhibitory activity in the cell-based assay” value ([1]; HeLa bipolar spindle formation) was “best performing analog”, the pIC50 ([1]; Homo sapiens, HeLa, 4 h, read-out: Bipolar spindle formation IC50) was 6.74 and the “anti-proliferative activity, initial single-dose screen” value (NCI60 tumor panel; 60 cancer cell lines, single dose 10 μM) was “promising activity”. The “average increase in activity over Monastrol” value (NCI60 tumor panel; GI50, average over cell lines) was 143 fold, the “average increase in activity over STLC” value (NCI60 tumor panel; GI50, average over cell lines) was 35 fold and the GI50 (NCI60 tumor panel; read-out: average GI50) was 360 nM. For the same compound, the GI50 (NCI60 tumor panel; read-out: highest GI50 of the range over the panel) was 3000 nM, the GI50 (NCI60 tumor panel; read-out: lowest GI50 of the range over the panel) was 20 nM and the GI50 (CCRF-CEM) was 100 nM. It also gave a GI50 (HL-60(TB)) of 190 nM, a GI50 (K-562) of 60 nM and a GI50 (MOLT-4) of 280 nM. For the same compound, the GI50 (RPMI-8226) was 30 nM, the GI50 (SR) was 10 nM and the GI50 (A549/ATCC) was 330 nM. The GI50 (EKVX) was 510 nM, the GI50 (HOP-62) was 510 nM and the GI50 (NCI-H226) was 2750 nM. For the same compound, the GI50 (NCI-H23) was 260 nM, the GI50 (NCI-H322M) was 110 nM and the GI50 (NCI-H522) was 220 nM. It also gave a GI50 (COLO 205) of 80 nM, a GI50 (HCC-2998) of 50 nM and a GI50 (HCT-116) of 30 nM. It also gave a GI50 (HCT-15) of 210 nM, a GI50 (HT29) of 340 nM and a GI50 (KM12) of 220 nM. The GI50 (SW-620) was 70 nM, the GI50 (SF-268) was 110 nM and the GI50 (SF-295) was 280 nM. For the same compound, the GI50 (SF-539) was 260 nM, the GI50 (SNB-19) was 250 nM and the GI50 (SNB-75) was 260 nM. For the same compound, the GI50 (U251) was 190 nM, the GI50 (LOX IMVI) was 490 nM and the GI50 (MALME-3M) was 360 nM. For the same compound, the GI50 (M14; Homo sapiens, Melanoma M14) was 20 nM, the “increase in activity over STLC” value (M14; melanoma cell line M14, GI50) was 20 fold and the “increase in activity over monastrol” value (M14; melanoma cell line M14, GI50) was 1200 fold. It also gave a GI50 (SK-MEL-2) of 240 nM, a GI50 (SK-MEL-28) of 620 nM and a GI50 (SK-MEL-5) of 60 nM. For the same compound, the GI50 (UACC-257) was 540 nM, the GI50 (UACC-62) was 250 nM and the GI50 (IGROV1) was 260 nM. For the same compound, the GI50 (OVCAR-3) was 200 nM, the GI50 (OVCAR-4) was 1620 nM and the GI50 (OVCAR-5) was 390 nM. The GI50 (OVCAR-8) was 420 nM, the GI50 (SK-OV-3) was 80 nM and the GI50 (786-0) was 440 nM. It also gave a GI50 (ACHN) of 490 nM, a GI50 (CAKI-1) of 450 nM and a GI50 (SN12C) of 320 nM. The GI50 (TK-10) was 460 nM and the GI50 (UO-31) was 1100 nM.

From patent US8349899B1 (Arrowhead Center, Inc., priority 2008, dated 2013)
